# Tests used:
# Test in all cases: Kinase profiling
# Type in all cases: biochemical
# AAK1(h) = target: T1, AAK1(h) (Homo sapiens, UniProt Q2M2I8)
# T1 construct: purchased Eurofins Cerep SA (KinaseProfiler)
# Experimental: (§1) 380 kinases inhibitory activities of SKLB-D18 were conducted by Eurofins Cerep SA. The result was illustrated by kinase tree (http://www.kinhub.org/kinmap/).
# AMPKα1(h) = target: T2, AMPKα1(h) (Homo sapiens, UniProt Q13131)
# T2 construct: purchased Eurofins Cerep SA (KinaseProfiler)
# Experimental: as §1
# CDK14/cyclinY(h) = target: T3, CDK14/cyclinY(h) (Homo sapiens, UniProt O94921)
# T3 construct: purchased Eurofins Cerep SA (KinaseProfiler)
# Experimental: as §1
# CDK17/cyclinY(h) = target: T4, CDK17/cyclinY(h) (Homo sapiens, UniProt Q00537)
# T4 construct: purchased Eurofins Cerep SA (KinaseProfiler)
# Experimental: as §1
# CHK1(h) = target: T5, CHK1(h) (Homo sapiens, UniProt O14757)
# T5 construct: purchased Eurofins Cerep SA (KinaseProfiler)
# Experimental: as §1
# CK1δ(h) = target: T6, CK1δ(h) (Homo sapiens, UniProt P48730)
# T6 construct: purchased Eurofins Cerep SA (KinaseProfiler)
# Experimental: as §1
# Cdc7/cyclinB1(h) = target: T7, Cdc7/cyclinB1(h) (Homo sapiens, UniProt O00311)
# T7 construct: purchased Eurofins Cerep SA (KinaseProfiler)
# Experimental: as §1
# ChaK1(h) = target: T8, ChaK1(h) (Homo sapiens, UniProt Q96QT4)
# T8 construct: purchased Eurofins Cerep SA (KinaseProfiler)
# Experimental: as §1
# DAPK2(h) = target: T9, DAPK2(h) (Homo sapiens, UniProt Q9UIK4)
# T9 construct: purchased Eurofins Cerep SA (KinaseProfiler)
# Experimental: as §1
# FGFR4(h) = target: T10, FGFR4(h) (Homo sapiens, UniProt P22455)
# T10 construct: purchased Eurofins Cerep SA (KinaseProfiler)
# Experimental: as §1
# Fer(h) = target: T11, Fer(h) (Homo sapiens, UniProt P16591)
# T11 construct: purchased Eurofins Cerep SA (KinaseProfiler)
# Experimental: as §1
# GRK3(h) = target: T12, GRK3(h) (Homo sapiens, UniProt P35626)
# T12 construct: purchased Eurofins Cerep SA (KinaseProfiler)
# Experimental: as §1
# IKKβ(h) = target: T13, IKKβ(h) (Homo sapiens, UniProt O14920)
# T13 construct: purchased Eurofins Cerep SA (KinaseProfiler)
# Experimental: as §1
# JAK3(h) = target: T14, JAK3(h) (Homo sapiens, UniProt P52333)
# T14 construct: purchased Eurofins Cerep SA (KinaseProfiler)
# Experimental: as §1
# LIMK2(h) = target: T15, LIMK2(h) (Homo sapiens, UniProt P53671)
# T15 construct: purchased Eurofins Cerep SA (KinaseProfiler)
# Experimental: as §1
# MAK(h) = target: T16, MAK(h) (Homo sapiens, UniProt P20794)
# T16 construct: purchased Eurofins Cerep SA (KinaseProfiler)
# Experimental: as §1
# MAPKAP-K2(h) = target: T17, MAPKAP-K2(h) (Homo sapiens, UniProt P49137)
# T17 construct: purchased Eurofins Cerep SA (KinaseProfiler)
# Experimental: as §1
# MELK(h) = target: T18, MELK(h) (Homo sapiens, UniProt Q14680)
# T18 construct: purchased Eurofins Cerep SA (KinaseProfiler)
# Experimental: as §1
# MOK(h) = target: T19, MOK(h) (Homo sapiens, UniProt Q9UQ07)
# T19 construct: purchased Eurofins Cerep SA (KinaseProfiler)
# Experimental: as §1
# MYLK2(h) = target: T20, MYLK2(h) (Homo sapiens, UniProt Q9H1R3)
# T20 construct: purchased Eurofins Cerep SA (KinaseProfiler)
# Experimental: as §1
# NEK7(h) = target: T21, NEK7(h) (Homo sapiens, UniProt Q8TDX7)
# T21 construct: purchased Eurofins Cerep SA (KinaseProfiler)
# Experimental: as §1
# PAK1(h) = target: T22, PAK1(h) (Homo sapiens, UniProt Q13153)
# T22 construct: purchased Eurofins Cerep SA (KinaseProfiler)
# Experimental: as §1
# PAK5(h) = target: T23, PAK5(h) (Homo sapiens, UniProt Q9P286)
# T23 construct: purchased Eurofins Cerep SA (KinaseProfiler)
# Experimental: as §1
# PEK(h) = target: T24, PEK(h) (Homo sapiens, UniProt Q9NZJ5)
# T24 construct: purchased Eurofins Cerep SA (KinaseProfiler)
# Experimental: as §1
# PIP5K1a(h) = target: T25, PIP5K1a(h) (Homo sapiens, UniProt Q99755)
# T25 construct: purchased Eurofins Cerep SA (KinaseProfiler)
# Experimental: as §1
# PKAcβ(h) = target: T26, PKAcβ(h) (Homo sapiens, UniProt P22694)
# T26 construct: purchased Eurofins Cerep SA (KinaseProfiler)
# Experimental: as §1
# PKG1β(h) = target: T27, PKG1β(h) (Homo sapiens, UniProt Q13976)
# T27 construct: purchased Eurofins Cerep SA (KinaseProfiler)
# Experimental: as §1
# PRP4(h) = target: T28, PRP4(h) (Homo sapiens, UniProt Q13523)
# T28 construct: purchased Eurofins Cerep SA (KinaseProfiler)
# Experimental: as §1
# PTK5(h) = target: T29, PTK5(h) (Homo sapiens, UniProt P42685)
# T29 construct: purchased Eurofins Cerep SA (KinaseProfiler)
# Experimental: as §1
# Plk4(h) = target: T30, Plk4(h) (Homo sapiens, UniProt O00444)
# T30 construct: purchased Eurofins Cerep SA (KinaseProfiler)
# Experimental: as §1
# SGK(h) = target: T31, SGK(h) (Homo sapiens, UniProt O00141)
# T31 construct: purchased Eurofins Cerep SA (KinaseProfiler)
# Experimental: as §1
# SNRK(h) = target: T32, SNRK(h) (Homo sapiens, UniProt Q9NRH2)
# T32 construct: purchased Eurofins Cerep SA (KinaseProfiler)
# Experimental: as §1
# STK32A(h) = target: T33, STK32A(h) (Homo sapiens, UniProt Q8WU08)
# T33 construct: purchased Eurofins Cerep SA (KinaseProfiler)
# Experimental: as §1
# Snk(h) = target: T34, Snk(h) (Homo sapiens, UniProt Q9NYY3)
# T34 construct: purchased Eurofins Cerep SA (KinaseProfiler)
# Experimental: as §1
# Syk(h) = target: T35, Syk(h) (Homo sapiens, UniProt P43405)
# T35 construct: purchased Eurofins Cerep SA (KinaseProfiler)
# Experimental: as §1
# TrkA(h) = target: T36, TrkA(h) (Homo sapiens, UniProt P04629)
# T36 construct: purchased Eurofins Cerep SA (KinaseProfiler)
# Experimental: as §1
# ULK2(h) = target: T37, ULK2(h) (Homo sapiens, UniProt Q8IYT8)
# T37 construct: purchased Eurofins Cerep SA (KinaseProfiler)
# Experimental: as §1
# ULK3(h) = target: T38, ULK3(h) (Homo sapiens, UniProt Q6PHR2)
# T38 construct: purchased Eurofins Cerep SA (KinaseProfiler)
# Experimental: as §1
# Wee1B(h) = target: T39, Wee1B(h) (Homo sapiens, UniProt P0C1S8)
# T39 construct: purchased Eurofins Cerep SA (KinaseProfiler)
# Experimental: as §1
# cKit(h) = target: T40, cKit(h) (Homo sapiens, UniProt P10721)
# T40 construct: purchased Eurofins Cerep SA (KinaseProfiler)
# Experimental: as §1
# p70S6K(h) = target: T41, p70S6K(h) (Homo sapiens, UniProt P23443)
# T41 construct: purchased Eurofins Cerep SA (KinaseProfiler)
# Experimental: as §1
# T4 sequence (Q00537 whole entry): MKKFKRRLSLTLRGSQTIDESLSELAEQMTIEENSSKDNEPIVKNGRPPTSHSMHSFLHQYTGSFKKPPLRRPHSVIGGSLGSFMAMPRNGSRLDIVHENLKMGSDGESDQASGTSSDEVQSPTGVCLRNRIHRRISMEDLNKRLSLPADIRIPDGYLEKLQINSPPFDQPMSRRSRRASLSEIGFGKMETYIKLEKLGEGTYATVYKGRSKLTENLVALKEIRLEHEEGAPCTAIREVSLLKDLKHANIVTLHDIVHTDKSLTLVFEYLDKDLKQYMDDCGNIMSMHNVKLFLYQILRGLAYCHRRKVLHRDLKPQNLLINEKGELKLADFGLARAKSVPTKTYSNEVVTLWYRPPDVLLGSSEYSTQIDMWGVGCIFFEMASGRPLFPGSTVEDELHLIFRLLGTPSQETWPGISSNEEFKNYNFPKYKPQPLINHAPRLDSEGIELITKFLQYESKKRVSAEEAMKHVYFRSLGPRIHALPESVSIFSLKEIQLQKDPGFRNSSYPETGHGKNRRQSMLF
# T4 sequence (Q8ND76 whole entry partner): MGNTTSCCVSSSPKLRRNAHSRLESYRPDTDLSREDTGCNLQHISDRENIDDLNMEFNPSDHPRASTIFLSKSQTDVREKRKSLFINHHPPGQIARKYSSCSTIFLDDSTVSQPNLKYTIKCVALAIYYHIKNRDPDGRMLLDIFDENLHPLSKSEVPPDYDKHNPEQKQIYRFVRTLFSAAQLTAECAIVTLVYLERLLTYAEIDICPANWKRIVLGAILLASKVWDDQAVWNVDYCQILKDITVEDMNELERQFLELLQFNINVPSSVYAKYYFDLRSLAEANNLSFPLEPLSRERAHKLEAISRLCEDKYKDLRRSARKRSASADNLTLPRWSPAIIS
# T31 sequence (O00141 whole entry): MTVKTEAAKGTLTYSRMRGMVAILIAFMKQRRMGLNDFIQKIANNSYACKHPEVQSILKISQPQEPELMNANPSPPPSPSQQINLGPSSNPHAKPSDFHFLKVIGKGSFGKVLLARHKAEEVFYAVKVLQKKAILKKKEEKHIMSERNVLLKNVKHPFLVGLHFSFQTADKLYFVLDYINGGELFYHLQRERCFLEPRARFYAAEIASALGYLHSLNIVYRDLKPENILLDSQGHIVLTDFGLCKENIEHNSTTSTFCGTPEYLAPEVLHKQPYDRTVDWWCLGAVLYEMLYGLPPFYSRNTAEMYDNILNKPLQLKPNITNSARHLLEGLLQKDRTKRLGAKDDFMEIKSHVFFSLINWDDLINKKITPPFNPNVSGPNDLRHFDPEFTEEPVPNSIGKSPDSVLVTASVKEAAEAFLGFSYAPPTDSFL
# T23 sequence (Q9P286 whole entry): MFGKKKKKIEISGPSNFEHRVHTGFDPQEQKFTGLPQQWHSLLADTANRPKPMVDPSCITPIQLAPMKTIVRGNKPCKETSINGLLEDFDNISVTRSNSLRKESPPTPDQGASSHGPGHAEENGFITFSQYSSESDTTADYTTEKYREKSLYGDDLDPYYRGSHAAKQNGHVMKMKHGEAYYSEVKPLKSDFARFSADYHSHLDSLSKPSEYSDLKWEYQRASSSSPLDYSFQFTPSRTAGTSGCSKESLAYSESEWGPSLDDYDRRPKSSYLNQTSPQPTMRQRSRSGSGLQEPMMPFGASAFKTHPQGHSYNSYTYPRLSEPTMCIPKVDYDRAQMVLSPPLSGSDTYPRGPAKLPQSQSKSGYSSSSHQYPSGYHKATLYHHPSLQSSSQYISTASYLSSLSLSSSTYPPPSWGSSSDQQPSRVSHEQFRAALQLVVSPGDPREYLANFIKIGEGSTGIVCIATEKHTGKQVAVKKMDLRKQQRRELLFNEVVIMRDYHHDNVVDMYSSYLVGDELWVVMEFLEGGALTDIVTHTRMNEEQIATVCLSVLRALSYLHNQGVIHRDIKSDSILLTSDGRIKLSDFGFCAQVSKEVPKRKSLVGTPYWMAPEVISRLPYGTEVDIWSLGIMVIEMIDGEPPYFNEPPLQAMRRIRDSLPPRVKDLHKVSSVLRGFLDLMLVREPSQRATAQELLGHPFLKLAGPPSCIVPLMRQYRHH
# T11 sequence (P16591 whole entry): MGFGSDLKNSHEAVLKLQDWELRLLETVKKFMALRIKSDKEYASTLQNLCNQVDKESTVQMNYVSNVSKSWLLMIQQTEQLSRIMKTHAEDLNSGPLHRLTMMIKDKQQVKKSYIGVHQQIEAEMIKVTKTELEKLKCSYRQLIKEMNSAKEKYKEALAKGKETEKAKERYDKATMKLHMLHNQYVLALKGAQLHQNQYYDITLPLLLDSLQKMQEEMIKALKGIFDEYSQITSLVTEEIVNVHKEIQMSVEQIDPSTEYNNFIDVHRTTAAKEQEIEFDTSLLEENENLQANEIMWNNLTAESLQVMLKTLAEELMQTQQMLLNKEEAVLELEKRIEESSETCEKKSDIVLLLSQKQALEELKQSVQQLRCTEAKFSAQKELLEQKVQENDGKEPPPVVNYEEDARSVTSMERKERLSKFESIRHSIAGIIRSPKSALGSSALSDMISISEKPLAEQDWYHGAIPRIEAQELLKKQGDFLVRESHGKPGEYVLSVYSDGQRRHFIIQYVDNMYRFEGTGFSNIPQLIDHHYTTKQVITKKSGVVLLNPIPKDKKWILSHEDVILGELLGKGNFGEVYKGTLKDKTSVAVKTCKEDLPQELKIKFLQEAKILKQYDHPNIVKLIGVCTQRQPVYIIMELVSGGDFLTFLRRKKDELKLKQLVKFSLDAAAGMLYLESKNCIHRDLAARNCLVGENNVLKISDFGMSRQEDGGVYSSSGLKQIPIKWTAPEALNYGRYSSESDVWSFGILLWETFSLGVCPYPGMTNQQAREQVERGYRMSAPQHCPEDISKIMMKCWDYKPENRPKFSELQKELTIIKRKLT
# T28 sequence (Q13523 whole entry): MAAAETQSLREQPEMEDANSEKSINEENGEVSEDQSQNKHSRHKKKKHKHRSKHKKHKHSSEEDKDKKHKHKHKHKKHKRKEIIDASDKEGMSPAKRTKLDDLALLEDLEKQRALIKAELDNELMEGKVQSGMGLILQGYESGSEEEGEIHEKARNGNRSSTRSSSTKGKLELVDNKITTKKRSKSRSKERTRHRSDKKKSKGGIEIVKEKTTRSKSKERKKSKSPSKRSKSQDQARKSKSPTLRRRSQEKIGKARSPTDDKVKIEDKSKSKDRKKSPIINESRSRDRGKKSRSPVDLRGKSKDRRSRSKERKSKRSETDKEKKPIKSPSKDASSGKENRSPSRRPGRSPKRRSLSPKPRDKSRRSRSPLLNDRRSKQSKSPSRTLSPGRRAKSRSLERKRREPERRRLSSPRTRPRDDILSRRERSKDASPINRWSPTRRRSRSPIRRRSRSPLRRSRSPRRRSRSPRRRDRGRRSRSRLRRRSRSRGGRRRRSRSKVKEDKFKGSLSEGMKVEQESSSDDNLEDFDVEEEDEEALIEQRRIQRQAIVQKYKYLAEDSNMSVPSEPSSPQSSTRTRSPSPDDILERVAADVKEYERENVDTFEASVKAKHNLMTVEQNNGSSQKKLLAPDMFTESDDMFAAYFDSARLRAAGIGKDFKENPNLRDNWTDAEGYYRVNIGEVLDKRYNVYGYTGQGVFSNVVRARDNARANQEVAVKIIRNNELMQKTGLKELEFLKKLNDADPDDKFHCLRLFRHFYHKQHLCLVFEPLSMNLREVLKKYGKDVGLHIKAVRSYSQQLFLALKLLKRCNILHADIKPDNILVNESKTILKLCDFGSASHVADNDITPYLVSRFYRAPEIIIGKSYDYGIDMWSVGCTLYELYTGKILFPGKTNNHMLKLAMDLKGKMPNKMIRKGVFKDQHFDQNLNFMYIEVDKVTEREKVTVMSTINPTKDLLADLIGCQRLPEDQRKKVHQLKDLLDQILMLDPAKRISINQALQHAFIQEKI
# T20 sequence (Q9H1R3 whole entry): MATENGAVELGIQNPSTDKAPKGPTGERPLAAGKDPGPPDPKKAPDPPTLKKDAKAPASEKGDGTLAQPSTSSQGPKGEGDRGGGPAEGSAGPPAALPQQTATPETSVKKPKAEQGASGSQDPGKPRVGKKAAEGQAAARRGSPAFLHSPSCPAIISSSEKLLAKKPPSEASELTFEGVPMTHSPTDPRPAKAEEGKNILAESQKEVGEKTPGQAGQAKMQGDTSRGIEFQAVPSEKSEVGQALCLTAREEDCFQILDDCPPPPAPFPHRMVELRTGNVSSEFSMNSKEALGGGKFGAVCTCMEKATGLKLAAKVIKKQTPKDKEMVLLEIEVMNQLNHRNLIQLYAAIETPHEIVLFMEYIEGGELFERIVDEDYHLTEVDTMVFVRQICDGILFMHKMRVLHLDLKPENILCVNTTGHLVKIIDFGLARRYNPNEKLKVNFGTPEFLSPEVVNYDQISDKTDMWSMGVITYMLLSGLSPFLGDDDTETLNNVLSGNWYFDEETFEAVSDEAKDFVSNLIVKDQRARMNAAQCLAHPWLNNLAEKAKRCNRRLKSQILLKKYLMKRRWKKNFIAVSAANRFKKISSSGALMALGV
# T39 sequence (P0C1S8 whole entry): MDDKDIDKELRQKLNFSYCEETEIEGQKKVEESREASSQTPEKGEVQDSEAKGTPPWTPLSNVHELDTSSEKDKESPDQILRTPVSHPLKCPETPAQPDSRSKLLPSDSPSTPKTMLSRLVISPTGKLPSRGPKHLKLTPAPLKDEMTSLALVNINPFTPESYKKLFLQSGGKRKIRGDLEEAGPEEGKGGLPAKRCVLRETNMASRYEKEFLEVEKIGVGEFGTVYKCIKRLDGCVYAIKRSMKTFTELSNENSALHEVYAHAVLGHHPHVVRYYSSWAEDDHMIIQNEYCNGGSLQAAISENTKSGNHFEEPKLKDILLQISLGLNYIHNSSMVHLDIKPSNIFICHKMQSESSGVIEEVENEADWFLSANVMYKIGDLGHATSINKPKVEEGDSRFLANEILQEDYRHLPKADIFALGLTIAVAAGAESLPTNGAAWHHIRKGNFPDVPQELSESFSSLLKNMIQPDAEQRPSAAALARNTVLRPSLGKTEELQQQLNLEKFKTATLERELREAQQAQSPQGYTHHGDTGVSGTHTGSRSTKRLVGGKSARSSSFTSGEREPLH
compound,measurement,setting,value
"CN(C)Cc1cccc(Nc2ncc(Cl)c(-c3csc(C(=O)NN4CCOCC4)c3)n2)c1 [SKLB-D18, 4-(5-chloro-2-((3-((dimethylamino)methyl)phenyl)amino)pyrimidin-4-yl)-N-morpholinothiophene-2-carboxamide]",inhibition at 1 µM,AAK1(h),58%
same,inhibition at 1 µM,AMPKα1(h),61%
same,inhibition at 1 µM,CDK14/cyclinY(h),58%
same,inhibition at 1 µM,CDK17/cyclinY(h),57%
same,inhibition at 1 µM,CHK1(h),36%
same,inhibition at 1 µM,CK1δ(h),16%
same,inhibition at 1 µM,Cdc7/cyclinB1(h),30%
same,inhibition at 1 µM,ChaK1(h),0%
same,inhibition at 1 µM,DAPK2(h),53%
same,inhibition at 1 µM,FGFR4(h),8%
same,inhibition at 1 µM,Fer(h),16%
same,inhibition at 1 µM,GRK3(h),2%
same,inhibition at 1 µM,IKKβ(h),53%
same,inhibition at 1 µM,JAK3(h),67%
same,inhibition at 1 µM,LIMK2(h),17%
same,inhibition at 1 µM,MAK(h),46%
same,inhibition at 1 µM,MAPKAP-K2(h),1%
same,inhibition at 1 µM,MELK(h),62%
same,inhibition at 1 µM,MOK(h),31%
same,inhibition at 1 µM,MYLK2(h),68%
same,inhibition at 1 µM,NEK7(h),-2%
same,inhibition at 1 µM,PAK1(h),45%
same,inhibition at 1 µM,PAK5(h),26%
same,inhibition at 1 µM,PEK(h),3%
same,inhibition at 1 µM,PIP5K1a(h),-5%
same,inhibition at 1 µM,PKAcβ(h),12%
same,inhibition at 1 µM,PKG1β(h),4%
same,inhibition at 1 µM,PRP4(h),19%
same,inhibition at 1 µM,PTK5(h),35%
same,inhibition at 1 µM,Plk4(h),38%
same,inhibition at 1 µM,SGK(h),11%
same,inhibition at 1 µM,SNRK(h),-14%
same,inhibition at 1 µM,STK32A(h),-3%
same,inhibition at 1 µM,Snk(h),28%
same,inhibition at 1 µM,Syk(h),38%
same,inhibition at 1 µM,TrkA(h),48%
same,inhibition at 1 µM,ULK2(h),67%
same,inhibition at 1 µM,ULK3(h),45%
same,inhibition at 1 µM,Wee1B(h),49%
same,inhibition at 1 µM,cKit(h),69%
same,inhibition at 1 µM,p70S6K(h),57%

# From publication PMC11842588, “A first-in-class selective inhibitor of ERK1/2 and ERK5 overcomes drug resistance with a single-molecule strategy” (Signal Transduction and Targeted Therapy, 2025)
